The term melting point denotes the temperature, or range, at which the solid turns liquid.

The results in this text go back to patent US20240300932A1, “N-PHENYLIMINE DERIVATIVE AND PREPARATION METHOD AND USE THEREOF” (Guizhou University, priority 2023, published 2024).

Each structure is given as a SMILES string.

The subject of one series is Trifoliumre pensL. The experiment in a line: Post-emergence herbicidal activity test (stem and leaf spray, pot culture). It counts as in vivo. To be noted: 3 weeks after spraying. The essentials:
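Pot-grown weeds in loam (pH 7), greenhouse at 20–30 °C, sprayed once post-emergence at the 2–3-leaf stage. Compound in acetone with Tween 80 plus methyl oleate oil (1.5 L/ha), applied at 10, 5 and 2.5 g/mu by spray tower. Effect scored 3 weeks after spraying, averaged over three repeats.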

For the next series, the system named is Portulaca oleracea. The description is as above. In kind it is in vivo. To be noted: 3 weeks after spraying. In outline:
(§1)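 Foliar spray, 2–3-leaf stage, 10/5/2.5 g/mu; acetone/Tween 80 + methyl oleate 1.5 L/ha. Greenhouse 3 wk, 20–30 °C. Score: fresh-wt control, grade 5 ≥85% … grade 0 <5%.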

For another series, the system named is Setaria viridis. The description is as above. In kind it is in vivo. Particulars: 3 weeks after spraying. The essentials: as §1
In the next series the test system is Echinochloa crusgalli. The series is described as above. It counts as in vivo. To be noted: 3 weeks after spraying. In outline: as §1
For a further series, the system named is Amaranthus retroflexus. The series is described as above. Particulars: 3 weeks after spraying. In kind it is in vivo. In outline:
as §1

The next series has as its system Abutilon theophrasti. Described as above. It counts as in vivo. To be noted: 3 weeks after spraying. The essentials:
as §1

Regarding `O=C1C2=C(CCCC2)C(=O)N1c1cc(OCc2ccc(F)cc2)c(Cl)cc1F` [Compound C10, 2-(4-chloro-2-fluoro-5-((4-fluorobenzyl)oxy)phenyl)-4,5,6,7-tetrahydro-1H-isoindole-1,3(2H)-dione], the melting point was in the range of 119 to 121 °C. In the series with Trifoliumre pensL. (dosage 2.5 g/mu), the “Post-emergence herbicidal activity, Trifoliumre pensL. (grade)” value was 5 (Grade 5: the growth control rate is greater than or equal to 85%). In addition, in the series with Trifoliumre pensL. (dosage 5 g/mu), the “Post-emergence herbicidal activity, Trifoliumre pensL. (grade)” value is listed as 5 (Grade 5: the growth control rate is greater than or equal to 85%). For the same compound, in the series with Trifoliumre pensL. (dosage 10 g/mu), the “Post-emergence herbicidal activity, Trifoliumre pensL. (grade)” value is listed as 5 (Grade 5: the growth control rate is greater than or equal to 85%). Further, in the series on Portulaca oleracea (dosage 2.5 g/mu), the “Post-emergence herbicidal activity, P. oleracea (grade)” value was 5 (Grade 5: the growth control rate is greater than or equal to 85%). Besides, the “Post-emergence herbicidal activity, P. oleracea (grade)” value in the series with Portulaca oleracea (dosage 5 g/mu) is 5 (Grade 5: the growth control rate is greater than or equal to 85%). In the series with Portulaca oleracea (dosage 10 g/mu), the “Post-emergence herbicidal activity, P. oleracea (grade)” value is listed as 5 (Grade 5: the growth control rate is greater than or equal to 85%). Besides, the “Post-emergence herbicidal activity, S. viridis (grade)” value in the series on Setaria viridis (dosage 2.5 g/mu) is 2 (Grade 2: the growth control rate is greater than or equal to 20% and less than 40%). Further, the “Post-emergence herbicidal activity, S. viridis (grade)” value with Setaria viridis (dosage 5 g/mu) is 3 (Grade 3: the growth control rate is greater than or equal to 40% and less than 60%). The “Post-emergence herbicidal activity, S. viridis (grade)” value in the series on Setaria viridis (dosage 10 g/mu) is 4 (Grade 4: the growth control rate is greater than or equal to 60% and less than 85%). The “Post-emergence herbicidal activity, E. crusgalli (grade)” value in the series on Echinochloa crusgalli (dosage 2.5 g/mu) was 1 (Grade 1: the growth control rate is greater than or equal to 5% and less than 20%). Besides, in the series with Echinochloa crusgalli (dosage 5 g/mu), the “Post-emergence herbicidal activity, E. crusgalli (grade)” value is 2 (Grade 2: the growth control rate is greater than or equal to 20% and less than 40%). In the series with Echinochloa crusgalli (dosage 10 g/mu), the “Post-emergence herbicidal activity, E. crusgalli (grade)” value was 3 (Grade 3: the growth control rate is greater than or equal to 40% and less than 60%). For the same compound, the “Post-emergence herbicidal activity, A. retroflexus (grade)” value in the series on Amaranthus retroflexus (dosage 2.5 g/mu) is listed as 5 (Grade 5: the growth control rate is greater than or equal to 85%). For the same compound, the “Post-emergence herbicidal activity, A. retroflexus (grade)” value with Amaranthus retroflexus (dosage 5 g/mu) was 5 (Grade 5: the growth control rate is greater than or equal to 85%). Moreover, the “Post-emergence herbicidal activity, A. retroflexus (grade)” value with Amaranthus retroflexus (dosage 10 g/mu) is given as 5 (Grade 5: the growth control rate is greater than or equal to 85%). The “Post-emergence herbicidal activity, A. theophrasti (grade)” value in the series on Abutilon theophrasti (dosage 2.5 g/mu) is given as 5 (Grade 5: the growth control rate is greater than or equal to 85%). The “Post-emergence herbicidal activity, A. theophrasti (grade)” value in the series on Abutilon theophrasti (dosage 5 g/mu) is on record as 5 (Grade 5: the growth control rate is greater than or equal to 85%). The “Post-emergence herbicidal activity, A. theophrasti (grade)” value with Abutilon theophrasti (dosage 10 g/mu) is listed as 5 (Grade 5: the growth control rate is greater than or equal to 85%).
`O=C(COc1cc(N2C(=O)C3=C(CCCC3)C2=O)c(F)cc1Cl)c1ccc(Cl)cc1` [Compound C11, 2-(4-chloro-2-fluoro-5-(2-oxo-2-(4-chlorophenyl)ethoxy)phenyl)-4,5,6,7-tetrahydro-1H-isoindole-1,3(2H)-dione] showed a melting point of 148 to 150 °C. Also, the “Post-emergence herbicidal activity, Trifoliumre pensL. (grade)” value in the series on Trifoliumre pensL. (dosage 2.5 g/mu) is on record as 5 (Grade 5: the growth control rate is greater than or equal to 85%). Further, the “Post-emergence herbicidal activity, Trifoliumre pensL. (grade)” value in the series with Trifoliumre pensL. (dosage 5 g/mu) was 5 (Grade 5: the growth control rate is greater than or equal to 85%). The “Post-emergence herbicidal activity, Trifoliumre pensL. (grade)” value in the series with Trifoliumre pensL. (dosage 10 g/mu) is 5 (Grade 5: the growth control rate is greater than or equal to 85%). Further, the “Post-emergence herbicidal activity, P. oleracea (grade)” value in the series on Portulaca oleracea (dosage 2.5 g/mu) is given as 5 (Grade 5: the growth control rate is greater than or equal to 85%). In the series with Portulaca oleracea (dosage 5 g/mu), the “Post-emergence herbicidal activity, P. oleracea (grade)” value is given as 5 (Grade 5: the growth control rate is greater than or equal to 85%). Also, the “Post-emergence herbicidal activity, P. oleracea (grade)” value in the series with Portulaca oleracea (dosage 10 g/mu) is listed as 5 (Grade 5: the growth control rate is greater than or equal to 85%). Further, the “Post-emergence herbicidal activity, S. viridis (grade)” value with Setaria viridis (dosage 2.5 g/mu) was 2 (Grade 2: the growth control rate is greater than or equal to 20% and less than 40%). Besides, in the series on Setaria viridis (dosage 5 g/mu), the “Post-emergence herbicidal activity, S. viridis (grade)” value was 3 (Grade 3: the growth control rate is greater than or equal to 40% and less than 60%). In the series with Setaria viridis (dosage 10 g/mu), the “Post-emergence herbicidal activity, S. viridis (grade)” value was 4 (Grade 4: the growth control rate is greater than or equal to 60% and less than 85%). Moreover, the “Post-emergence herbicidal activity, E. crusgalli (grade)” value with Echinochloa crusgalli (dosage 2.5 g/mu) is 1 (Grade 1: the growth control rate is greater than or equal to 5% and less than 20%). In the series with Echinochloa crusgalli (dosage 5 g/mu), the “Post-emergence herbicidal activity, E. crusgalli (grade)” value is 2 (Grade 2: the growth control rate is greater than or equal to 20% and less than 40%). Also, in the series on Echinochloa crusgalli (dosage 10 g/mu), the “Post-emergence herbicidal activity, E. crusgalli (grade)” value was 3 (Grade 3: the growth control rate is greater than or equal to 40% and less than 60%). The “Post-emergence herbicidal activity, A. retroflexus (grade)” value with Amaranthus retroflexus (dosage 2.5 g/mu) is 5 (Grade 5: the growth control rate is greater than or equal to 85%). In addition, the “Post-emergence herbicidal activity, A. retroflexus (grade)” value with Amaranthus retroflexus (dosage 5 g/mu) is recorded as 5 (Grade 5: the growth control rate is greater than or equal to 85%). The “Post-emergence herbicidal activity, A. retroflexus (grade)” value in the series on Amaranthus retroflexus (dosage 10 g/mu) is on record as 5 (Grade 5: the growth control rate is greater than or equal to 85%). Besides, the “Post-emergence herbicidal activity, A. theophrasti (grade)” value in the series on Abutilon theophrasti (dosage 2.5 g/mu) was 5 (Grade 5: the growth control rate is greater than or equal to 85%). The “Post-emergence herbicidal activity, A. theophrasti (grade)” value with Abutilon theophrasti (dosage 5 g/mu) is on record as 5 (Grade 5: the growth control rate is greater than or equal to 85%). Besides, the “Post-emergence herbicidal activity, A. theophrasti (grade)” value in the series on Abutilon theophrasti (dosage 10 g/mu) is on record as 5 (Grade 5: the growth control rate is greater than or equal to 85%).
Compound `O=C(COc1cc(N2C(=O)C3=C(CCCC3)C2=O)c(F)cc1Cl)c1ccc(F)cc1F` [Compound C12, 2-(4-chloro-2-fluoro-5-(2-oxo-2-(2,4-difluorophenyl)ethoxy)phenyl)-4,5,6,7-tetrahydro-1H-isoindole-1,3(2H)-dione] had a melting point of 158 to 160 °C. In addition, the “Post-emergence herbicidal activity, Trifoliumre pensL. (grade)” value in the series on Trifoliumre pensL. (dosage 2.5 g/mu) was 5 (Grade 5: the growth control rate is greater than or equal to 85%). The “Post-emergence herbicidal activity, Trifoliumre pensL. (grade)” value with Trifoliumre pensL. (dosage 5 g/mu) is reported as 5 (Grade 5: the growth control rate is greater than or equal to 85%). Further, the “Post-emergence herbicidal activity, Trifoliumre pensL. (grade)” value in the series with Trifoliumre pensL. (dosage 10 g/mu) was 5 (Grade 5: the growth control rate is greater than or equal to 85%). In addition, the “Post-emergence herbicidal activity, P. oleracea (grade)” value in the series with Portulaca oleracea (dosage 2.5 g/mu) is given as 5 (Grade 5: the growth control rate is greater than or equal to 85%). The “Post-emergence herbicidal activity, P. oleracea (grade)” value in the series with Portulaca oleracea (dosage 5 g/mu) is recorded as 5 (Grade 5: the growth control rate is greater than or equal to 85%). In addition, in the series on Portulaca oleracea (dosage 10 g/mu), the “Post-emergence herbicidal activity, P. oleracea (grade)” value is reported as 5 (Grade 5: the growth control rate is greater than or equal to 85%). Also, the “Post-emergence herbicidal activity, S. viridis (grade)” value in the series with Setaria viridis (dosage 2.5 g/mu) was 2 (Grade 2: the growth control rate is greater than or equal to 20% and less than 40%). Also, the “Post-emergence herbicidal activity, S. viridis (grade)” value with Setaria viridis (dosage 5 g/mu) was 3 (Grade 3: the growth control rate is greater than or equal to 40% and less than 60%). Also, in the series on Setaria viridis (dosage 10 g/mu), the “Post-emergence herbicidal activity, S. viridis (grade)” value was 4 (Grade 4: the growth control rate is greater than or equal to 60% and less than 85%). Also, the “Post-emergence herbicidal activity, E. crusgalli (grade)” value in the series on Echinochloa crusgalli (dosage 2.5 g/mu) is 1 (Grade 1: the growth control rate is greater than or equal to 5% and less than 20%). In the series on Echinochloa crusgalli (dosage 5 g/mu), the “Post-emergence herbicidal activity, E. crusgalli (grade)” value is 2 (Grade 2: the growth control rate is greater than or equal to 20% and less than 40%). Besides, the “Post-emergence herbicidal activity, E. crusgalli (grade)” value in the series on Echinochloa crusgalli (dosage 10 g/mu) is 3 (Grade 3: the growth control rate is greater than or equal to 40% and less than 60%). The “Post-emergence herbicidal activity, A. retroflexus (grade)” value in the series on Amaranthus retroflexus (dosage 2.5 g/mu) was 5 (Grade 5: the growth control rate is greater than or equal to 85%). For the same compound, the “Post-emergence herbicidal activity, A. retroflexus (grade)” value in the series with Amaranthus retroflexus (dosage 5 g/mu) was 5 (Grade 5: the growth control rate is greater than or equal to 85%). The “Post-emergence herbicidal activity, A. retroflexus (grade)” value with Amaranthus retroflexus (dosage 10 g/mu) is 5 (Grade 5: the growth control rate is greater than or equal to 85%). In the series on Abutilon theophrasti (dosage 2.5 g/mu), the “Post-emergence herbicidal activity, A. theophrasti (grade)” value is reported as 5 (Grade 5: the growth control rate is greater than or equal to 85%). The “Post-emergence herbicidal activity, A. theophrasti (grade)” value in the series with Abutilon theophrasti (dosage 5 g/mu) is recorded as 5 (Grade 5: the growth control rate is greater than or equal to 85%). The “Post-emergence herbicidal activity, A. theophrasti (grade)” value in the series on Abutilon theophrasti (dosage 10 g/mu) is on record as 5 (Grade 5: the growth control rate is greater than or equal to 85%).
